The source of these data is ChEMBL document CHEMBL5365457, “Selective HDAC3 Inhibitors with Potent In Vivo Antitumor Efficacy against Triple-Negative Breast Cancer” (J Med Chem, 2023).

The target in series [1] is Histone deacetylase 3 (Homo sapiens, UniProt O15379). The series is described as follows: Inhibition of human recombinant HDAC3 at 1 uM measured after 30 mins by fluorescence based microplate assay relative to control.
In series [2] the test system is MCF7. Put plainly: Cytotoxicity against human MCF7 cells assessed as inhibition of cell growth incubated for 72 hrs by MTT assay. The format is functional, cell-based. Conditions: MCF7, 72 h. A general note: Tetrazolium assays rely on reduction of a dye to a coloured formazan, in cell work by metabolically active cells.
Series [3] relates to 4T1. Put plainly: Cytotoxicity against mouse 4T1 cells assessed as inhibition of cell growth incubated for 72 hrs by MTT assay. The series is classed as functional, cell-based. The following applies: 4T1, 72 h.
The test system of series [4] is MDA-MB-231. Put plainly: Cytotoxicity against human MDA-MB-231 cells assessed as inhibition of cell growth incubated for 72 hrs by MTT assay. The series is classed as functional, cell-based. The following applies: MDA-MB-231, 72 h.
The subject of series [5] is MDA-MB-453. Put plainly: Cytotoxicity against human MDA-MB-453 cells assessed as inhibition of cell growth incubated for 72 hrs by MTT assay. The series is classed as functional, cell-based. The following applies: MDA-MB-453, 72 h.
Series [6] is described as follows: Cytotoxicity against human MCF-10A cells assessed as inhibition of cell growth incubated for 72 hrs by MTT assay. The format is toxicity, cell-based.
The nature of series [7]: Cytotoxicity against human HEK293 cells assessed as inhibition of cell growth incubated for 72 hrs by MTT assay. The format is toxicity, cell-based.
A short description of series [8]: Cytotoxicity against human HCEC cells assessed as inhibition of cell growth incubated for 72 hrs by MTT assay. The following applies: for IC50 at 72 h: human, HCEC cells. The format is toxicity, cell-based.
The nature of series [9]: Selectivity ratio of IC50 for cytotoxicity against human MCF-10A cells assessed as inhibition of cell growth to IC50 for cytotoxicity against human MCF7 cells assessed as inhibition of cell growth. The format is toxicity, cell-based. The following applies: MCF-10A cells versus MCF7 cells, read-out: Ratio IC50.
A short description of series [10]: Selectivity ratio of IC50 for cytotoxicity against human MCF-10A cells assessed as inhibition of cell growth to IC50 for cytotoxicity against […] cells assessed as inhibition of cell growth. The series is classed as toxicity, cell-based. The following applies: MCF-10A cells versus 4T1 cells, read-out: Ratio IC50.
Series [11] is described as follows: Selectivity ratio of IC50 for cytotoxicity against human MCF-10A cells assessed as inhibition of cell growth to IC50 for cytotoxicity against human MDA-MB-231 cells assessed as inhibition of cell growth. The series is classed as toxicity, cell-based. The following applies: MCF-10A cells versus MDA-MB-231 cells, read-out: Ratio IC50.
A short description of series [12]: Selectivity ratio of IC50 for cytotoxicity against human MCF-10A cells assessed as inhibition of cell growth to IC50 for cytotoxicity against human MDA-MB-453 cells assessed as inhibition of cell growth. The series is classed as toxicity, cell-based. The following applies: MCF-10A cells versus MDA-MB-453 cells, read-out: Ratio IC50.
Series [13] can be described thus: Selectivity ratio of IC50 for cytotoxicity against human HEK293 cells assessed as inhibition of cell growth to IC50 for cytotoxicity against human MCF7 cells assessed as inhibition of cell growth. Conditions: HEK293 cells versus MCF7 cells, read-out: Ratio IC50. The series is classed as toxicity, cell-based.
Series [14] in a line: Selectivity ratio of IC50 for cytotoxicity against human HEK293 cells assessed as inhibition of cell growth to IC50 for cytotoxicity against mouse 4T1 cells assessed as inhibition of cell growth. The series is classed as toxicity, cell-based. Conditions: HEK293 cells versus 4T1 cells, read-out: Ratio IC50.
Series [15] can be described thus: Selectivity ratio of IC50 for cytotoxicity against human HEK293 cells assessed as inhibition of cell growth to IC50 for cytotoxicity against human MDA-MB-231 cells assessed as inhibition of cell growth. The format is toxicity, cell-based. Conditions: HEK293 cells versus MDA-MB-231 cells, read-out: Ratio IC50.
The nature of series [16]: Selectivity ratio of IC50 for cytotoxicity against human HEK293 cells assessed as inhibition of cell growth to IC50 for cytotoxicity against human MDA-MB-453 cells assessed as inhibition of cell growth. The format is toxicity, cell-based. The following applies: HEK293 cells versus MDA-MB-453 cells, read-out: Ratio IC50.
A short description of series [17]: Selectivity ratio of IC50 for cytotoxicity against human HCEC cells assessed as inhibition of cell growth to IC50 for cytotoxicity against human MCF7 cells assessed as inhibition of cell growth. The series is classed as toxicity, cell-based. Conditions: HCEC cells versus MCF7 cells, read-out: Ratio IC50.
Series [18] is described as follows: Selectivity ratio of IC50 for cytotoxicity against human HCEC cells assessed as inhibition of cell growth to IC50 for cytotoxicity against mouse 4T1 cells assessed as inhibition of cell growth. The series is classed as toxicity, cell-based. Conditions: HCEC cells versus 4T1 cells, read-out: Ratio IC50.
Series [19] is described as follows: Selectivity ratio of IC50 for cytotoxicity against human HCEC cells assessed as inhibition of cell growth to IC50 for cytotoxicity against human MDA-MB-231 cells assessed as inhibition of cell growth. The format is toxicity, cell-based. The following applies: HCEC cells versus MDA-MB-231 cells, read-out: Ratio IC50.
The nature of series [20]: Selectivity ratio of IC50 for cytotoxicity against human HCEC cells assessed as inhibition of cell growth to IC50 for cytotoxicity against human MDA-MB-453 cells assessed as inhibition of cell growth. The following applies: HCEC cells versus MDA-MB-453 cells, read-out: Ratio IC50. The series is classed as toxicity, cell-based.
The target in series [21] is Histone deacetylase 2 (Homo sapiens, UniProt Q92769). The series is described as follows: Inhibition of human recombinant HDAC2 at 1 uM incubated for 30 mins by fluorescence based microplate assay relative to control.
For series [22], the target named is Histone deacetylase 1 (Homo sapiens, UniProt Q13547). Put plainly: Inhibition of full length N-terminal human recombinant HDAC1 at 1 uM incubated for 30 mins by fluorescence based microplate assay relative to control.
Sequence of Histone deacetylase 1 (Q13547 whole entry): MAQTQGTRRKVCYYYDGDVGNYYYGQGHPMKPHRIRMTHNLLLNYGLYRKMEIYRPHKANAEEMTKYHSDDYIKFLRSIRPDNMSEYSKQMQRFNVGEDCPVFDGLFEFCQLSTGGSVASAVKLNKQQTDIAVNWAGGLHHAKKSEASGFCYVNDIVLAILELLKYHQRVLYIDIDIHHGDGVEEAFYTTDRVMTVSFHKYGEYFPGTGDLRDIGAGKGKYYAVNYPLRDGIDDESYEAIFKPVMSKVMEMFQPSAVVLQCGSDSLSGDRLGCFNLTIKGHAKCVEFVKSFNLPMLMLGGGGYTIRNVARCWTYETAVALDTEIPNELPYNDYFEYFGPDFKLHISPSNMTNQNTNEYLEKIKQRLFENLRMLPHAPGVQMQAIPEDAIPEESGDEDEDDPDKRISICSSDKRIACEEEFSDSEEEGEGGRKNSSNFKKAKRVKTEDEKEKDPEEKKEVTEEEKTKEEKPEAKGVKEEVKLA

Sequence of Histone deacetylase 3 (O15379 whole entry): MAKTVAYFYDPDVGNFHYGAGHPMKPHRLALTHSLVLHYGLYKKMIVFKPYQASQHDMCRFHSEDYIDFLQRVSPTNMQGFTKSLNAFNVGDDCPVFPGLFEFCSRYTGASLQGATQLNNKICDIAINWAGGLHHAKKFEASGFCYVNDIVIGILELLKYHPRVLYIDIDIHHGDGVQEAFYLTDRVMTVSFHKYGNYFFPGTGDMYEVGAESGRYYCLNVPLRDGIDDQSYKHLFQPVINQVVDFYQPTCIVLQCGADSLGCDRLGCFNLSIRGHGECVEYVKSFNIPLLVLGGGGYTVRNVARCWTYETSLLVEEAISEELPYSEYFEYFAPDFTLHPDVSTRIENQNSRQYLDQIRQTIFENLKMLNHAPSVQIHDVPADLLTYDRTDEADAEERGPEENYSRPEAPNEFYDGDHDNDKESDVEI
Sequence of Histone deacetylase 2 (Q92769 whole entry): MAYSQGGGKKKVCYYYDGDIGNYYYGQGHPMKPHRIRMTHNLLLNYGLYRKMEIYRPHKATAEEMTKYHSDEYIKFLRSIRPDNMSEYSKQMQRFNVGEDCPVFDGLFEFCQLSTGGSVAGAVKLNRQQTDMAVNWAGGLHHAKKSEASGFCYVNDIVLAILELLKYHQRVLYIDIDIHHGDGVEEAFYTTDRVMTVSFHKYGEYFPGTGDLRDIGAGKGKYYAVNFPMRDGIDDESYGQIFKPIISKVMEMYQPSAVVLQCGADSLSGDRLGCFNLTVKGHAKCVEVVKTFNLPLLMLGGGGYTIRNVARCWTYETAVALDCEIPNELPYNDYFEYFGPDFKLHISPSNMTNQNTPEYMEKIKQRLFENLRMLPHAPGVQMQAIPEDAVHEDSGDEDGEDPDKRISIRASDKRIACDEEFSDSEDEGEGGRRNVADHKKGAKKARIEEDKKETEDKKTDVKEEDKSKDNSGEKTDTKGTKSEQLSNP

What is called inhibition is the share of the control response that was lost under treatment. As a reminder, the IC50 is the concentration that gives 50% inhibition. In the case of `CCCCNNC(=O)c1cnc(NCc2ccc(OC)cc2)cn1`, the inhibition in [1] was greater than 70%. Further, the IC50 was determined as 2590 nM in [2]; 930 nM in [3]; 970 nM in series [4]; 2.68 µM in [5]; 1.37 mM in series [8] (hcec). For the same molecule, the IC50 at 72 h came out at 109 µM in [6] and 107 µM in series [7]. Moreover, the selectivity ratio in series [9], in [10], in series [11], in [12], in [13] and in series [14] was greater than 40 in each case. For the same molecule, the selectivity ratio in series [15], in series [16], in [17], in series [18], in series [19] and in series [20] was greater than 40 each time.
As for `CCCNNC(=O)c1cnc(NC(=O)c2ccc3[nH]ccc3c2)cn1`, the inhibition in series [21] is less than 17%; in series [1] it was greater than 70%; in series [22], less than 17%. The IC50 in [2] was 2030 nM; in series [3], 710 nM; in [4], 920 nM; in series [5], 2.19 µM. For the same molecule, the IC50 at 72 h in [6] turned out to be 125 µM; in series [7], 138 µM; in series [8] it was 180 µM. The selectivity ratio in series [9], in [10], in series [11], in [12], in series [13] and in series [14] was greater than 40 each time. The selectivity ratio in series [15], in [16], in series [17], in [18], in series [19] and in [20] was greater than 40 in each case.
As to `CCCNNC(=O)c1cnc(NCc2ccccc2)cn1`, the inhibition in series [21] is less than 17%; in series [1], greater than 70%; in series [22], less than 17%. Moreover, the IC50 in [2] amounted to 1120 nM; in series [3] it was 1150 nM; in series [4], 1230 nM; in series [5] it was 2.76 µM. In addition, the IC50 at 72 h in series [6] turned out to be 114 µM; in [7], 110 µM; in series [8] it was 140 µM. Also, the selectivity ratio in series [9], in series [10], in series [11], in [12], in series [13] and in [14] was greater than 40 each time. The selectivity ratio in series [15], in series [16], in series [17], in series [18], in [19] and in [20] was greater than 40 throughout.
Consider `CCCCNNC(=O)c1cnc(NC(=O)c2ccc3ncccc3c2)cn1`, for which the half-maximal inhibitory concentration (IC50) was found to be 1360 nM in [2], 2920 nM in [3], 2840 nM in series [4] and 4.92 µM in series [5]. The IC50 at 72 h in [6] is 220 µM; in [7], 264 µM; in series [8], 234 µM. In addition, the selectivity ratio in [9], in [10], in series [11], in [12], in series [13] and in series [14] was greater than 40 in each case. For the same molecule, the selectivity ratio in series [15], in series [16], in series [17], in series [18], in series [19] and in series [20] was greater than 40 throughout.
With `CCCNNC(=O)c1cnc(NC(C)=O)cn1`, the IC50 in [2] amounted to 1210 nM; in series [3], 920 nM; in series [4], 970 nM; in series [5] it was 1.93 µM. For the same molecule, the results for the IC50 at 72 h in [6], in [7] and in series [8] were 142 µM, 118 µM and 164 µM, respectively. In addition, the selectivity ratio in series [9], in series [10], in series [11], in series [12], in [13] and in series [14] was greater than 40 throughout. The selectivity ratio in [15], in [16], in series [17], in series [18], in series [19] and in [20] was greater than 40 throughout.
On to `CCCCNNC(=O)c1cnc(NCc2ccccc2)cn1`, for which the inhibition in series [1] was greater than 70%. Further, the concentration for half-maximal inhibition (IC50) was 2160 nM in [2], 1600 nM in series [3], 132000 nM in series [4] and 3.33 µM in series [5]. For the same molecule, the results for the IC50 at 72 h in [6], in series [7] and in [8] were 113 µM, 133 µM and 129 µM, respectively. Also, the selectivity ratio in series [9], in series [10], in series [11], in series [12], in series [13] and in [14] was greater than 40 throughout. Moreover, the selectivity ratio in series [15], in series [16], in series [17], in series [18], in [19] and in series [20] was greater than 40 in each case.
For the molecule `CCCCNNC(=O)c1cnc(N)cn1`, the IC50 was 1810 nM in series [2], 1270 nM in series [3], 1250 nM in series [4] and 3.33 µM in [5]. The IC50 at 72 h stood at 118 µM in [6], 133 µM in series [7] and 215 µM in series [8]. Moreover, the selectivity ratio in series [9], in [10], in series [11], in series [12], in series [13] and in [14] was greater than 40 throughout. Moreover, the selectivity ratio in [15], in series [16], in series [17], in series [18], in series [19] and in [20] was greater than 40 each time.
Regarding `CCCNNC(=O)c1cnc(Nc2ccccc2)cn1`, in series [1], the inhibition is greater than 70%. Besides, the IC50 worked out at 3280 nM in series [2], 2760 nM in series [3], 1880 nM in series [4] and 5.44 µM in series [5]. The IC50 at 72 h in [6] amounted to 205 µM; in series [7], 218 µM; in [8], 196 µM. For the same molecule, the selectivity ratio in series [9], in series [10], in series [11], in [12], in series [13] and in series [14] was greater than 40 each time. Besides, the selectivity ratio in series [15], in series [16], in series [17], in series [18], in series [19] and in series [20] was greater than 40 each time.
